US20110295006A1, “CYCLIC DIPEPTIDES AS FEED ADDITIVES” (EVONIK DEGUSSA GMBH, priority 2010, published 2011)

Key:
ruminants = conditions: disclosed in WO00/28835; cited from earlier work
[1] = tested on: digestive enzymes from rainbow trout; assay: In vitro digestion tests with digestive enzymes from rainbow trout; assay type: in vitro ADME, Oncorhynchus mykiss; conditions: pH 9
Method: (§1) The diketopiperazines were digested in vitro with digestive enzymes from carnivorous rainbow trout and omnivorous mirror carp. For this, the enzymes were removed from the digestive tracts of fishes and shrimps. The enzyme solutions obtained were then added to the diketopiperazines. For better comparability of the digestibility of dipeptides of various species, identical conditions were selected for the in vitro digestion studies (37° C., pH 9).
a) Isolation of the Digestive Enzymes from Rainbow Trout (Oncorhynchus mykiss)
The digestive enzymes were isolated based on the method of EID and MATTY (Aquaculture 1989, 79, 111-119). For this, the intestine was removed from five one-year-old rainbow trout (Oncorhynchus mykiss) and processed as described in Example 11. 56 ml of enzyme solution of the intestinal mucosa was obtained from 5 rainbow trout. The solution was stored in the dark at 4° C.
The in vitro studies were carried out as in Example 11. The conversion was determined as the quotient of the content of methionine or methionylmethionine (Met-Met) and the content of cyclo-Met-Met (see FIG. 3).
The test from Example 12b) was carried out similarly, with the cyclic dipeptides cyclo-D-Met-L-Phe and cyclo-D-Met-L-Lys (see FIGS. 7 and 8).

[2] = tested on: digestive enzymes from mirror carp; assay: In vitro digestion tests with digestive enzymes from mirror carp; assay type: in vitro ADME, Cyprinus carpio morpha noblis; conditions: pH 9
Method: as §1
a) Isolation of the Digestive Enzymes from Mirror Carp (Cyprinus carpio morpha noblis)
The digestive enzymes were isolated based on the method of EID and MATTY (Aquaculture 1989, 79, 111-119). For this, the intestine was removed from six one-year-old mirror carp (Cyprinus carpio morpha noblis), rinsed with water, cut open lengthwise and in each case the intestinal mucosa was scraped off. This was comminuted, together with crushed ice, in a mixer. The resultant suspension was treated with an ultrasonic rod, to disrupt any cells that were still intact. In order to separate the cell constituents and fat, the suspension was centrifuged for 30 minutes at 4° C., the homogenate was decanted off and sterilized with a trace of thimerosal. 49 ml of enzyme solution of the intestinal mucosa was obtained from 6 mirror carp. The solution was stored at 4° C. in the dark.
(§2) DD/LL-cyclo-Met-Met was taken up in TRIS/HCl buffer solution and the enzyme solution was added to it. As comparison and for assessing the purely chemical cleavage rate, in each case a blank was prepared without enzyme solution (see Table 1). A sample was taken from time to time and its composition was detected and quantified using a calibrated HPLC. The conversion was determined as the quotient of the content of methionine or methionylmethionine (Met-Met) and the content of DD/LL-cyclo-Met-Met (see FIG. 4).
The test from Example 11b) was carried out similarly, with the cyclic dipeptides cyclo-L-His-L-His and cyclo-D-Met-L-Leu (see FIGS. 5 and 6).

Litopenaeus vannamei = conditions: feeding tests; Forster and Dominy 2006; cited from earlier work
[3] = Blank without enzyme solution (purely chemical cleavage rate); assay type: physicochemical; conditions: no enzyme solution
Method: as §2, with “4). […] [table] The in vitro studies were carried out as in Example 11. The conversion was determined as the quotient of the content of methionine or methionylmethionine (Met-Met) and the content of cyclo-Met-Met (see FIG. 3). […] [table] The in vitro studies were carried out as in Example 11. The conversion was determined as the quotient of the content of methionine or D-Met-L-Thr and the content of cyclo-D-Met-L-Thr (see FIG. 9). […] [table]” for “4).”

[4] = Leaching behavior from feed in water; assay type: physicochemical
[5] = Pelletizing and extrusion stability in feed production; assay type: physicochemical
[6] = Solubility (water, pH, bile/water mixtures); assay type: physicochemical
chicken = conditions: Baker et al. 1982; cited from earlier work

## CSCCC(O)C(=O)OC(C)C (centres unmarked) [HMBi]
ruminants
  biological value: at least 50%

## CSCC[C@@H]1NC(=O)[C@H](CCSC)NC1=O [cyclo-L-Met-L-Met]
[1]
  enzymatic cleavage by digestive enzymes of rainbow trout: can be cleaved
[2]
  enzymatic cleavage by digestive enzymes of mirror carp: can be cleaved

## CSCCC(N)C(=O)O (racemic) [DL-methionine]
Litopenaeus vannamei
  efficacy relative to L-methionine: same efficacy as L-methionine

## CSCC[C@H]1NC(=O)[C@H]([C@@H](C)O)NC1=O [cyclo-D-Met-L-Thr, 3-(R)-[2-(methylthio)ethyl]-6-(S)-(1-(R)-hydroxyethyl)-2,5-piperazinedione]
[3]; TRIS/HCl buffer pH 9.5, 37° C.
  conversion in the blank to dipeptide D-Met-L-Thr or free amino acids: hardly any conversion

## CSCC[C@H]1NC(=O)[C@@H](CCSC)NC1=O [cyclo-D-Met-D-Met]
[1]; in vitro, 37° C.
  enzymatic cleavage by digestive enzymes of rainbow trout: can be cleaved
[2]; in vitro, 37° C.
  enzymatic cleavage by digestive enzymes of mirror carp: can be cleaved

## CSCCC1NC(=O)C(CCSC)NC1=O (racemic) [DD/LL/meso-cyclo-Met-Met, 3,6-bis[2-(methylthio)ethyl]-2,5-piperazinedione]
[1]; in vitro, 37° C.
  enzymatic cleavage by digestive enzymes of rainbow trout: can be cleaved
[4]
  leaching behavior: particularly good leaching behavior
[5]
  pelletizing and extrusion stability: good pelletizing and extrusion stability
[3]; TRIS/HCl buffer pH 9.5, 37° C.
  conversion in the blank to dipeptide DD/LL/meso-Met-Met or DL-methionine: hardly any conversion
[6]
  solubility: low solubility

## CSCCC1NC(=O)C(CCSC)NC1=O (centres unmarked) [DD/LL-cyclo-Met-Met, 3,6-bis[2-(methylthio)ethyl]-2,5-piperazinedione]
[3]; TRIS/HCl buffer pH 9.5, bile, 37° C.
  reaction in the blank to dipeptide DD/LL-Met-Met or DL-methionine: hardly any reaction
[2]; in vitro, 37° C.
  enzymatic cleavage by digestive enzymes of mirror carp: can be cleaved

## poly-L-methionine
chicken
  biological value: no biological value

## CSCC[C@@H]1NC(=O)[C@@H](CCSC)NC1=O [cyclo-D-Met-L-Met]
[1]; in vitro, 37° C.
  enzymatic cleavage by digestive enzymes of rainbow trout: can be cleaved
[2]; in vitro, 37° C.
  enzymatic cleavage by digestive enzymes of mirror carp: can be cleaved
